Test: Evaluation of appearance (Test Example 1)
Assay type: physicochemical
Conditions: allowed to stand, about 1 hour after production; transparent / separated / cloudy
Description: After producing the pharmaceutical compositions and the self-emulsifying compositions of Reference Examples by the production methods as described above, the compositions were allowed to stand, and after about 1 hour, their appearance was evaluated. The composition was evaluated “transparent” when the composition was homogeneous due to the good compatibility. The composition was evaluated “separated” when the separation was observed and “cloudy” when opacity was observed.

- Appearance: good appearance was not realized
SMILES: CC(C)c1c(C(=O)Nc2ccccc2)c(-c2ccccc2)c(-c2ccc(F)cc2)n1CC[C@@H](O)C[C@@H](O)CC(=O)[O-].CC(C)c1c(C(=O)Nc2ccccc2)c(-c2ccccc2)c(-c2ccc(F)cc2)n1CC[C@@H](O)C[C@@H](O)CC(=O)[O-].[Ca+2] [atorvastatin calcium]

Source: patent publication US20180015038A1, “OMEGA-3 FATTY ACID SELF-EMULSIFYING COMPOSITION” (MOCHIDA PHARMACEUTICAL CO., LTD., priority 2015, published 2018)
